Results: PMC4809498, “Artonin E Induces Apoptosis via Mitochondrial Dysregulation in SKOV-3 Ovarian Cancer Cells” (PLoS ONE, 2016)
Converted amounts (≈) assume the structure as drawn.

Columns and labels:
SKOV-3 cells = test: MTT cell viability assay, SKOV-3; type: cell-based, human; details: SKOV-3, MTT; for IC50: Homo sapiens
Description: (§1) Metastatic ovarian adenocarcinoma (SKOV-3) and normal Chinese hamster ovary (CHO) cell lines were originally obtained from the American Type Culture Collection (ATCC; Manassas, VA). SKOV-3 cells were cultured in McCoy’s 5A medium and CHO cells were cultured in F12K medium. A human periodontal ligament fibroblast cell line was purchased from Lonza, USA and maintained in stroma cell basal medium. T1074 (normal immortalized human ovarian surface epithelial cell line) was originally purchased from Applied Biological Materials (abm®) Canada and cultured in Prigrow 1 medium.
(§2) The inhibitory effects of artonin E and two positive controls paclitaxel and carboplatin were examined by MTT assay. Cells at a density of 5×10^3cells/well were placed in a 96-well plate and left for 24 h to attach. The attached cells were exposed to artonin E, paclitaxel, and carboplatin at different concentrations and incubated for 24, 48, and 72 h. Subsequently, 20 μL of 5 mg/mL MTT solution was added after drug treatment and the resulting mixture was incubated for 4 h to form purple formazan. Afterward, 100 μL of dimethyl sulfoxide (DMSO) was transferred into each well to dissolve the purple formazan, and results were measured using a microplate reader (Tecan Infinite M 200 PRO, Männedorf, Switzerland) at an absorbance of 570 nm. The half-maximal concentrations that caused cell growth inhibition (IC50 values) were obtained from the MTT viability growth curve.

T1074 cells = test: MTT cell viability assay, T1074; type: cell-based, human; details: for IC50: Homo sapiens
Description: as §1, §2

| Structure (SMILES) | IC50 values (SKOV-3 cells; 24 h treatment) [µg/mL] | IC50 values (SKOV-3 cells; 48 h treatment) [µg/mL] | IC50 values (SKOV-3 cells; 72 h treatment) [µg/mL] | IC50 values (T1074 cells; 24 h treatment) [µg/mL] | IC50 values (T1074 cells; 48 h treatment) [µg/mL] | IC50 values (T1074 cells; 72 h treatment) [µg/mL] | IC50 (SKOV-3 cells; SK-OV-3, 24 h, 24 h treatment) [µg/mL] | IC50 (SKOV-3 cells; SK-OV-3, 48 h, 48 h treatment) [µg/mL] | IC50 (SKOV-3 cells; SK-OV-3, 72 h, 72 h treatment) [µg/mL] | IC50 (T1074 cells; 24 h treatment) [µg/mL] | IC50 (T1074 cells; 48 h treatment) [µg/mL] | IC50 (T1074 cells; 72 h treatment) [µg/mL] |
| --- | --- | --- | --- | --- | --- | --- | --- | --- | --- | --- | --- | --- |
| N.N.O=C([O-])C1(C(=O)[O-])CCC1.[Pt+2] [Carboplatin, carboplatin] | 15.1 ± 0.36 | 10.5 ± 0.5 | 7.2 ± 0.25 | 45.6 ± 0.57 | 25.8 ± 0.28 | 10.8 ± 0.7 | – | – | – | – | – | – |
| CC(=O)O[C@H]1C(=O)[C@@]2(C)[C@H]([C@H](OC(=O)c3ccccc3)[C@]3(O)C[C@H](OC(=O)[C@H](O)[C@@H](NC(=O)c4ccccc4)c4ccccc4)C(C)=C1C3(C)C)[C@]1(OC(C)=O)CO[C@@H]1C[C@@H]2O [Paclitaxel, paclitaxel] | – | – | – | – | – | – | 4.6 ± 0.28 (≈ 5.39 µM) | 2.5 ± 0.2 (≈ 2.93 µM) | 0.8 ± 0.2 (≈ 0.937 µM) | > 50 | 49.3 ± 0.76 (≈ 57.7 µM) | 30.5 ± 0.5 (≈ 35.7 µM) |
